Source: ChEMBL document CHEMBL5143525, “N-methylated diazabicyclo[3.2.2]nonane substituted triterpenoic acids are excellent, hyperbolic and selective inhibitors for butyrylcholinesterase” (Eur J Med Chem, 2022)
Active and inactive are the calls of the source. The calls are words filed in the database; no cut-off is given here.

These compounds were tested against Cholinesterase (Equus caballus) (UniProt P81908) (assay: Mixed type inhibition of equine serum BuChE by Dixon plot analysis).
Chain of Cholinesterase (Equus caballus) (P81908 whole entry): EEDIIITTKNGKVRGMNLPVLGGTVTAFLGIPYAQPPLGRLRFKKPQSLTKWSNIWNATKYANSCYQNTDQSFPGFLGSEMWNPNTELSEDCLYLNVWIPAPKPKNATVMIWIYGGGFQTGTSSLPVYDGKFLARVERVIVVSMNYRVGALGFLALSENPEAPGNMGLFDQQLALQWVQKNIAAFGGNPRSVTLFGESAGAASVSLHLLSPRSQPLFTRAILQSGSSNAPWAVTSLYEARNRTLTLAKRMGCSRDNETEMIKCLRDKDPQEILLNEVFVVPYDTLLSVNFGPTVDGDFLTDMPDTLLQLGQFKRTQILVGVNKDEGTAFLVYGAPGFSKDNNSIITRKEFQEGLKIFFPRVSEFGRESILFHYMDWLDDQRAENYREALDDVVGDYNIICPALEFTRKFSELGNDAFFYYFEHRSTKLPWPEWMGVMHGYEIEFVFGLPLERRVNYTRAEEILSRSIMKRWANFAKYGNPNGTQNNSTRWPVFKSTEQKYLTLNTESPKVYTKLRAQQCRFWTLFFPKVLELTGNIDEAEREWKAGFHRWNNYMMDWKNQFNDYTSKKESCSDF
With `CC(=O)O[C@H]1CC[C@]2(C)[C@H]3CC=C4[C@@H]5CC(C)(C)CC[C@]5(C(=O)N5CC6CC[N+](C)(CC6)C5)CC[C@@]4(C)[C@]3(C)CC[C@H]2C1(C)C` the inhibition mechanism was “Active”. `CC(=O)O[C@H]1CC[C@]2(C)[C@H]3CC=C4[C@@H]5[C@@H](C)[C@H](C)CC[C@]5(C(=O)N5CC6CC[N+](C)(CC6)C5)CC[C@@]4(C)[C@]3(C)CC[C@H]2C1(C)C` was tested, and the inhibition mechanism was “Active”. `CC(=O)O[C@H]1CC[C@]2(C)[C@H]3CC[C@H]4[C@@H]5[C@H](C(C)=O)CC[C@]5(C(=O)N5CC6CC[N+](C)(CC6)C5)CC[C@@]4(C)[C@]3(C)CC[C@H]2C1(C)C` was tested, and the inhibition mechanism was “Active”. In the case of `CC(=O)O[C@H]1CC[C@]2(C)[C@H]3C(=O)C[C@H]4[C@@H]5C[C@@](C)(C(=O)N6CC7CC[N+](C)(CC7)C6)CC[C@]5(C)CC[C@@]4(C)[C@]3(C)CC[C@H]2C1(C)C`, the inhibition mechanism is reported as “Active”. `C=C(C)[C@@H]1CC[C@]2(C(=O)N3CC4CC[N+](C)(CC4)C3)CC[C@]3(C)[C@@H](CC[C@@H]4[C@@]5(C)CC[C@H](OC(C)=O)C(C)(C)[C@@H]5CC[C@]43C)[C@H]12` was tested, and the inhibition mechanism was “Active”.
